Experimental data: US20190298717A1 (BOARD OF REGENTS, THE UNIVERSITY OF TEXAS SYSTEM, priority 2016, published 2019)
Entries after “also recorded” stand apart in the source; their conditions may differ.

Legend:
GSK3β and Tau = experiment: p-GSK3β and p-Tau in Aβ (1-42) treated primary neurons; settings: 1 μM, 24 hours
Description: Cells were transfected with tdTomato (red) plasmid to visualize structural and morphological changes of neurons. Nuclei were stained with DAPI (blue) scale bar=10 μm. […] Densitometry values were normalized using actin as an internal control.
Immunofluorescence assays were performed and the phosphorylation status of GSK3β and Tau proteins were analyzed in primary cells using pGSK3β (S9) and pTau (S396) antibodies. Primary cortical neurons were isolated from the cortex of 0 day pups, cultured for two weeks, and were transfected with tdTomato plasmid to visualize structural and morphological changes of neurons. […] At the end of the treatment cells were fixed and immunostained with respective antibodies.

SH-SY5Y cells [1] = tested on: SH-SY5Y cells
Description: Viability of the cells was measured by Cell Titer Glo after 24 and 48 hours of treatments. […] Values are presented as mean±SDE (*p<0.05, **p<0.01).
SH-SY5Y neuroblastoma cells were treated with doxorubicin (0.2 μM), a cytotoxic compound that depletes the NAD pool of the cells and changes morphological features that mimic neurodegeneration such as loss of neuritis (8, 9).

SH-SY5Y cells [2] = experiment: MTT cell viability under H2O2 induced stress; assay type: cell-based, human; settings: 100 μM H2O2 24 h; 10 and 25 μM compound; listed as hydralazine
Description: (§1) To generate intracellular aldehydes, the inventors treated human neuroblastoma cell line (SH-SY5Y) with 100 μM hydrogen peroxide (H2O2) for 24 h. Carbonyl groups were quantified using 2,4-DNPH (dinitrophenylhydrazine) assay.
Cell Viability and Cytotoxicity Assay. Cell growth was analyzed using the MTT cell viability assay. Briefly, at the end of incubation/treatment, MTT reagent was diluted in culture medium and aliquoted into each well. After incubation for 2 hours, the medium was aspirated and DMSO was aliquoted into each well to disrupt the cells and dissolve the intracellular MTT dyes. Absorbance was read at 570 nm wavelength in a 96-well plate reader. Cell toxicity was detected using a LDH cell toxicity assay kit (Promega, Fitchburg Wis.). This is a coupled enzymatic assay that detects a visible color signal initially described by Nachlas et. al. The reagent contained excess concentrations of lactate and NAD+as substrates to drive the LDH reaction and produce NADH. In the presence of diaphorase, NADH drives the enzyme-catalyzed conversion of iodonitro-tetrazolium violet to a red formazan product. Briefly, DMEM medium was withdrawn from each well of the plate after treatment and briefly centrifuged to get rid of floating cells or cell debris. […] The absorbance was read at 490 nm in a 96-well plate reader. […]

LC3 = settings: 0, 5, 10 μM, ± bafilomycin 20 nM, 4 hours
Description: (§2) Results are expressed as means±SD from three independent experiments. […] Cell lysates were then subjected to Western blot analysis.
(§3) A cell titer glow luminescence assay was used to measure cell cytotoxicity. […] LC3, microtubule-associated protein 1 light chain 3, which is a homologue of Apg8p essential for autophagy in yeast, is processed posttranslationally into LC3-I in cytosol. LC3-I is then converted into LC3-II, which associates with autophagosome membranes. The ratio of LC3-II/LC3-I determines the status of the autophagy process.

SH-SY5Y cells [3] = tested on: SH-SY5Y cells; remark: listed apart in the source
Description: as §2, §3

[4] = tested on: HEK293 cells overexpressing tau residues 244 to 372, with mutations of P301L and V337M
Description: (§4) The inventors first measured the cell proliferation to evaluate the stress caused by expression of tau fibrils in aggregate-positive and negative cells (FIG. 6A). […] The inventors also measured the concentration of superoxide ions (O2-), a detrimental byproduct of oxidative phosphorylation, as an ROS representative. […] The inventors next measured expression of Nrf2 and HO-1 in the same cells (FIG. 6C). […] Aggregate-positive and -negative KD cells were treated with 200 μM H2O2 for 24 h. Cytotoxicity was measured as release of LDH.
(§5) Cell Viability and Cytotoxicity Assay. Cell growth was analyzed using the MTT cell viability assay. Briefly, at the end of incubation/treatment, MTT reagent was diluted in culture medium and aliquoted into each well. After incubation for 2 hours, the medium was aspirated and DMSO was aliquoted into each well to disrupt the cells and dissolve the intracellular MTT dyes. Absorbance was read at 570 nm wavelength in a 96-well plate reader. Cell toxicity was detected using a LDH cell toxicity assay kit (Promega, Fitchburg Wis.). This is a coupled enzymatic assay that detects a visible color signal initially described by Nachlas et. al. The reagent contained excess concentrations of lactate and NAD+as substrates to drive the LDH reaction and produce NADH. In the presence of diaphorase, NADH drives the enzyme-catalyzed conversion of iodonitro-tetrazolium violet to a red formazan product. Briefly, DMEM medium was withdrawn from each well of the plate after treatment and briefly centrifuged to get rid of floating cells or cell debris. Then, the medium supernatant was mixed with equal volume of substrate/enzyme mixture included in the kit (lactate, NAD+, diaphorase and iodonitro-tetrazolium violet), followed by incubation at room temperature for 15 minutes before the addition of acetic acid to cease the reaction. The absorbance was read at 490 nm in a 96-well plate reader. […] Cell viability assay was performed using CellTiter-Glo assay.

[5] = tested on: primary cortical neuronal cells; settings: 0.1, 1, 10 μM, 1 μM rotenone, 24 hours
Description: as §4, §5

thioredoxin 1 (Trx1) = settings: SH-SY5Y, after 24 h and 48 h
Description: (§6) Trx1 reduces the cysteine residues critical for binding of Nrf2 to AREs (Hansen et al., 2004).
Western Blot Analysis. Protein expression was determined by Western blot analysis. Equal amount of protein from each sample was run in Tris-glycine SDS PAGE gel, followed by transferring to PVDF membrane. After blocking the membrane with 5% milk for 1 hour at room temperature, the membrane was incubated further for 2 hours with antibodies specific for target proteins: Nrf2, pNrf2(S40) from Novus (Littleton, Colo.); Keap1, HO-1, NQO1, GCLc, GCLm and lamin B1 from Cell Signaling (Danvers, Mass.); GAPDH from Santa Cruz (Dallas, Tex.); β-Actin from Thermo Fisher (Waltham, Mass.). The membrane was subsequently incubated with species-specific HRP-conjugated secondary antibody followed by incubation with chemiluminescence substrate and imaging. The band intensity of each of the target proteins was quantified using ImageQuant software (GE Healthcare, Sweden). Western blot analysis on worm lystaes was done similarly. […] Equal amounts of protein were run on the gel and SKN-1 protein level was detected using anti-GFP antibody.

SH-SY5Y cells [6] = experiment: H2O2-EC50 of hydralazine and its analogs (protection from H2O2 stress); assay type: cell-based; settings: Homo sapiens
Description: as §1, §5

[7] = data not shown
[8] = tested on: Nrf2 transcriptional activity (ARE)
Description: as §6
Nrf2 Transcriptional Activity Assay. The transcriptional activity of Nrf2 was determined using a luciferase-based transcription activation approach. A vector carrying a […] controlled luciferase gene (firefly luciferase) and a vector carrying the control luciferase (Renilla luciferase) from an ARE reporter kit (BPS Bioscience, San Diego, Calif.) was transiently co-transfected into the cells using Lipofectamine reagents (Thermo Fisher, Waltham, Mass.). […] Briefly, the cells were incubated with firefly luciferase substrate for 10 minutes prior to measurement luminescence in a 96-well luminescence plate reader. Subsequently, the Renilla luciferase was measured after the addition of Dual-Glo Stop & Glo reagent into the wells with a 10-minute incubation. The ratio of luminescence from firefly and Renilla was calculated to normalize and compare the Nrf2 transcriptional activity.

## NNc1nncc2ccccc12 [Hydralazine]
GSK3β and Tau
  pGSK3β (S9) in primary cells: marked increase
  pTau in primary cells: reduced level of pTau
SH-SY5Y cells [1]; 48 hours
  increase of NAD level of untreated cell: 50%
SH-SY5Y cells [1]; doxorubicin 0.2 μM
  NAD level in doxorubicin treated cells: significant effect on restoring NAD level
SH-SY5Y cells [1]; doxorubicin 0.2 μM, 0, 10, 20 μM, 24 and 48 hours
  protection against doxorubicin induced cell death: protects cells in a dose-dependent manner
SH-SY5Y cells [2]
  cell viability under H2O2 induced cell death (MTT): significantly improved; also recorded: provided protection in a dose-dependent manner
LC3
  ratio of LC3-II/LC3-I: increase in the ratio of LC3-II/LC3-I
SH-SY5Y cells [3]; MG132 10 μM, H2O2 100 μM, 4 hours
  protection against oxidative stress under proteasomal inhibition by MG132: does not have an impact
SH-SY5Y cells [3]; bafilomycin 20 nM, H2O2 100 μM, 4 hours
  protection against oxidative stress under autophagy inhibition with bafilomycin: significantly reduces the ability of hydralazine to protect cells
SH-SY5Y cells [3]; human, 48 h
  concentration at which no toxicity was observed: up to 25 μM
  concentration with significant decrease in cell viability compared to control: ≥ 50 µM
[4]; 20 μM, 1 μM rotenone, 24 h
  cell viability under rotenone: protects both aggregate-positive and negative cells
[4]; Nrf2 knockdown tau cells
  cell viability in Nrf2 KD cell line: did not improve cell viability
[4]; tau aggregate-positive HEK293
  cell growth of aggregate-positive cells: improved
[5]
  viability of primary neuronal cells under rotenone: rescues primary neuronal cells from rotenone toxicity in a dose-dependent manner
Thioredoxin 1 (Trx1)
  increase of the amount of Trx1: 25%
SH-SY5Y cells [6]
  EC50: 6.78 µM
[7]
  pro-oxidant environment (DCFH-DA intensity): does not create a mild pro-oxidant environment
[8]; SH-SY5Y
  ARE binding elevation: 2 fold
[8]; SH-SY5Y with ARE-luciferase reporter, 24 h, both concentrations
  luciferase activity compared to untreated cells: 2.0±0.2 folds
